In paper PMC10039885, “Unnatural activities and mechanistic insights of cytochrome P450 PikC gained from site-specific mutagenesis by non-canonical amino acids” (Nature Communications, 2023):

Target: T1, PikC (PikCWT; cytochrome P450 CYP107L1) (Streptomyces venezuelae, UniProt O87605)
T1 construct: pET28a-pikC, expressed in E. coli BL21(DE3), Ni-NTA purified; heme protein
T1 sequence (O87605 1-416): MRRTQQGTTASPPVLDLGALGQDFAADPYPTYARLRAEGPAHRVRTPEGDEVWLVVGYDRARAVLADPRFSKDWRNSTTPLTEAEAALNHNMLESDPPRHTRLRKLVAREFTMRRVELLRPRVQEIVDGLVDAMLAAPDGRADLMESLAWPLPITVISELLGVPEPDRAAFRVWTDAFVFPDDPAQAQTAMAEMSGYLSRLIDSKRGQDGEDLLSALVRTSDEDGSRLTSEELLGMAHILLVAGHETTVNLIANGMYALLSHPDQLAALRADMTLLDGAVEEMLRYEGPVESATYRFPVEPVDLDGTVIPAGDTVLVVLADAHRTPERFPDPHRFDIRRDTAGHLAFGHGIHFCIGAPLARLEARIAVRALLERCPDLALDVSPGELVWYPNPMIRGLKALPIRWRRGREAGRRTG
Assay: UV-vis difference spectral titration ([…]-420 nm)
Assay type: binding

| Compound | Kd [µM] |
| --- | --- |
| CC[C@H]1OC(=O)[C@H](C)C(=O)[C@H](C)[C@@H](O[C@@H]2O[C@H](C)C[C@H](N(C)C)[C@H]2O)[C@@H](C)C[C@@H](C)C(=O)/C=C/[C@H]1C [compound 5, narbomycin] | 374 |
| CC[C@H]1OC(=O)[C@H](C)[C@@H](O[C@@H]2O[C@H](C)C[C@H](N(C)C)[C@H]2O)[C@@H](C)C[C@@H](C)C(=O)/C=C/[C@H]1C [compound 4, YC-17] | 178 |
